Measured values as given in publication PMC3813752 (PLoS ONE, 2013).

Assays:
[1] = biological target: T1, human GPR18 (Homo sapiens, UniProt Q14330); test: cell-based
T1 sequence (Q14330 1-331): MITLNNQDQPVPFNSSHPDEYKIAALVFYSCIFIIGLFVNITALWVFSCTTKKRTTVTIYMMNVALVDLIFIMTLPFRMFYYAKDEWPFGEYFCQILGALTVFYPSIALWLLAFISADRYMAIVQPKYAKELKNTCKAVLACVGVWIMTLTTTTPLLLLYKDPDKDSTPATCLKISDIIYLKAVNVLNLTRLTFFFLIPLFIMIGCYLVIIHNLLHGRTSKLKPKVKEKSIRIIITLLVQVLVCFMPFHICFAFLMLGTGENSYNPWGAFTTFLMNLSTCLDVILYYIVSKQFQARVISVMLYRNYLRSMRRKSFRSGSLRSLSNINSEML

[2] = biological target: T1, human GPR18; details: test compound 10 µM, related to effect of Δ9-THC 10 µM = 100%
[3] = biological target: human GPR55 (Homo sapiens, UniProt Q9Y2T6); test: β-arrestin recruitment assay (PathHunter), CHO cells expressing GPR55
[4] = biological target: human CB1 receptor (Homo sapiens, UniProt P21554); details: determined at 100 µM; cited from earlier work
Sequence of human CB1 receptor (P21554 whole entry): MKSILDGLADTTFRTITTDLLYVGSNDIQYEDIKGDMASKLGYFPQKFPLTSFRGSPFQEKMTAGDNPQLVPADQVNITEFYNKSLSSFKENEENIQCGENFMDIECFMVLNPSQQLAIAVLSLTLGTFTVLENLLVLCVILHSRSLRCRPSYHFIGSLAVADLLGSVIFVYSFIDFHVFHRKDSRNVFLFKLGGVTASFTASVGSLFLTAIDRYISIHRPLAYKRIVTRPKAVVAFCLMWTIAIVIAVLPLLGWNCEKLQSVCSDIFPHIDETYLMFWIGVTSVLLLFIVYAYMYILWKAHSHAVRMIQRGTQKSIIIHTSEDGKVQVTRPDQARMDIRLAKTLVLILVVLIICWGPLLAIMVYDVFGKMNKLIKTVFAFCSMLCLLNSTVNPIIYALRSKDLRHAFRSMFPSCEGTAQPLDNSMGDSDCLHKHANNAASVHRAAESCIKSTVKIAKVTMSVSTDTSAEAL

Sequence of human GPR55 (Q9Y2T6 whole entry): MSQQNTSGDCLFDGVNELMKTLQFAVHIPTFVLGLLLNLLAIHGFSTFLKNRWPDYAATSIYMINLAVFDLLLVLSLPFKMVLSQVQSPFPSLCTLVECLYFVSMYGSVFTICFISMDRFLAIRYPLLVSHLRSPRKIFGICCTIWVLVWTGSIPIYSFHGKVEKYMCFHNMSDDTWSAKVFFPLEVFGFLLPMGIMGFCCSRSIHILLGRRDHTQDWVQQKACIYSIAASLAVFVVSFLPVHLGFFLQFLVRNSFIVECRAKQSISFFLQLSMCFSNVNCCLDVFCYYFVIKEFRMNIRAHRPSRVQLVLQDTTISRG

SMILES: C=CCc1ccc(O)c(-c2cc(CC=C)ccc2O)c1 [Compound 9, 4-allyl-2-(5-allyl-2-hydroxyphenyl)phenol, reference compound]
- EC50 [1]: > 10 µM
- inhibition at 10 µM ([1]; CHO, read-out: % inhibition of Δ9-THC (10 µM)-induced β-arrestin recruitment at GPR18, test compound at 10 µM): 2%
- IC50 ([1]; GPR18 IC50, β-arrestin recruitment, antagonist mode vs. Δ9-THC (10 µM)): > 10 µM
- agonist effect on β-arrestin recruitment at GPR18 [2]: 0%
- EC50 [3]: > 10 µM
- inhibition at 10 µM ([3]; CHO, read-out: % inhibition of LPI (1 µM)-induced β-arrestin recruitment at GPR55): 0%
- IC50 ([3]; GPR55 IC50, β-arrestin recruitment, antagonist mode vs. LPI (1 µM)): > 10 µM
- agonist effect on β-arrestin recruitment at GPR55 ([3]; test compound 10 µM, related to effect of LPI 1 µM = 100%): 11%
- efficacy CB1, cAMP accumulation assay [4]: 62%
